Laboratory results: US11529422B2, “Polymer linkers and their uses” (priority 2016, dated 2022)
pIC50: −log10 of the molar value. Where a SMILES comes first, the peptide text is derived from it. [ ]: non-standard residue; d: D form. The star is where a group is joined. Dolaproine = CO[C@@H]([C@@H]1CCCN1)[C@@H](C)C(=O)O; Dil = CC[C@H](C)[C@H](NC)[C@@H](CC(=O)O)OC; NMe2Val = CC(C)[C@@H](C(=O)*)N(C)C

What was measured:
[1] = test system: NCI-N87 cells; assay: Cell Viability Assay (CellTiter-Glo), NCI-N87; format: cell-based
Description: (§1) Compounds and conjugates were tested for their activity using the Cell Viability Assay (CellTiter-Glo® Luminescent Cell Viability Assay from Promega), which measures the number of viable cells in culture after treatment with the inventive compounds or conjugates for 72 hours based on quantitation of the ATP present (Cell Viability. IC50).

[2] = test system: BT-474 cells; assay: Cell Viability Assay (CellTiter-Glo), BT-474; format: cell-based
Description: as §1

[3] = test system: SK-BR-3 cells; assay: Cell Viability Assay (CellTiter-Glo), SK-BR-3; format: cell-based
Description: as §1

[4] = test system: MCF7 breast cancer cell; assay: Cell Viability Assay (CellTiter-Glo), MCF7; format: cell-based; conditions: MCF7, Table 2 (another assay)
Description: as §1

[5] = test system: HCC1954 cells; assay: Cell Viability Assay (CellTiter-Glo), HCC1954; format: cell-based
Description: as §1

[6] = test system: HER2 expressing cancer cell lines; conditions: for activity compared with free Auristatin F, in words: summary of Table 1
Description: Three HER2 expressing breast cancer cell lines (BT474, HCC1954 and SK-BR-3) and HER2 expressing gastric cancer cell line NCI-N87 were used in the viability assay. The cells were placed in opaque-walled 96-well plate and allowed to adhere overnight at 37° C. in 5% CO2 and 95% humidity atmosphere. Cell density per well: 7000 (BT474), 3000 (HCC1954), 5000 (NCI-N87), 4000 (SK-BR-3). The test compounds or conjugates were added to experimental wells, and incubate at 37° C. in 5% CO2 and 95% humidity atmosphere for 72 hours. The plates were equilibrated at room temperature for 30 min. CellTiter-Glo® reagent equal to the volume of cell culture medium present in each well was added. After cell lysis on an orbital shaker for 2 min, the plate was incubated at room temperature for 10 min. Luminescence were recorded using EnVision® Multilabel Reader (PerkinElmer, 2104-0010A). GraphPad Prism 5.0 was used to analyze the data. The dose response curves were determined, and the IC50 value was calculated.
Another assay measured the IC50 values for compounds 24 and 25 on the same cell lines and MCF7 breast cancer cell.

[7] = NCI-N87, Table 2 (another assay)
[8] = BT-474, Table 2 (another assay)
[9] = SK-BR-3, Table 2 (another assay)
[10] = HCC1954, Table 2 (another assay)

Row | Compound | pIC50 ([1]; NCI-N87, 72 hours, Table 1) | pIC50 [1, 7] | pIC50 ([2]; BT-474, 72 hours, Table 1) | pIC50 [2, 8] | pIC50 ([3]; SK-BR-3, 72 hours, Table 1) | pIC50 [3, 9] | pIC50 [4] | pIC50 ([5]; HCC1954, 72 hours, Table 1) | pIC50 [5, 10] | activity compared with compound 24 and controls, in words ([6]; summary of Table 2, same cell lines and MCF7) | activity compared with free Auristatin F, in words [6]
1 | N.N.[Cl][Pt][Cl] [Cisplatin, reference compound] | 5.34 | 5.78 | < 4.00 | 4.41 | 5.72 | 6.06 | 5.04 | 5.22 | 5.21 |  | 
2 | poly(1-hydroxymethylethylene hydroxy-methyl formal)-SPA-(auristatin F 2-(2-hydroxy-ethoxy)-ethylamide L-Alanine)-Trastuzumab [Compound 25] |  | 9.52 |  | 9.40 |  | 10.00 | 8.48 |  | 9.70 | significant increase in activity as compared to compound 24 | 
3 | CC[C@H](C)[C@@H]([C@@H](CC(=O)N1CCC[C@H]1[C@H](OC)[C@@H](C)C(=O)N[C@@H](Cc1ccccc1)C(=O)O)OC)N(C)C(=O)[C@@H](NC(=O)[C@H](C(C)C)N(C)C)C(C)C [Auristatin F, reference compound] (NMe2Val-V[Dil][Dolaproine]F-OH) | 7.16 | 6.41 | 6.58 | 5.81 | 7.29 | 6.63 | 5.71 | 7.42 | 6.70 |  | 
4 | poly(1-hydroxymethylethylene hydroxy-methyl formal)-SPA-(auristatin F 2-(2-hydroxy-ethoxy)-ethylamide L-Alanine)-maleimide [Compound 24] |  | 7.04 |  | 7.24 |  | 7.25 | 6.64 |  | 7.34 |  | 
5 | poly(1-hydroxymethylethylene hydroxy-methyl formal)-SPA-(auristatin F 2-(2-hydroxy-ethoxy)-ethylamide L-Alanine)-maleimide [Compound 14] | < 6.30 |  | 7.06 |  | 7.32 |  |  | 7.49 |  |  | activity similar to free Auristatin F
6 | poly(1-hydroxymethylethylene hydroxy-methyl formal)-SPA-(auristatin F 2-(2-hydroxy-ethoxy)-ethylamide L-Alanine)-(Trastuzumab-MCC) [Compound 16] | 7.25 |  | 9.41 |  | 7.66 |  |  | 9.89 |  |  | inhibition of HER2 increases significantly
7 | poly(1-hydroxymethylethylene hydroxy-methyl formal)-SPA-(auristatin F 2-(2-hydroxy-ethoxy)-ethylamide L-Alanine)-Trastuzumab [Compound 17] | > 10.30 |  | > 10.30 |  | > 10.30 |  |  | > 10.30 |  |  | inhibition of HER2 increases significantly
8 | poly(1-hydroxymethylethylene hydroxy-methyl formal)-SPA-(auristatin F 2-(2-hydroxy-ethoxy)-ethylamide L-Alanine)-SSPy [Compound 15] | < 6.30 |  | 7.24 |  | 7.43 |  |  | 7.62 |  |  | activity similar to free Auristatin F
